Drawing on patent publication US12319684B2 (Sanford Burnham Prebys Medical Discovery Institute, priority 2014, dated 2025), this text covers EC50 and Emax for 27 compounds.

The experiment concerns the target T1, human apelin receptor (APJ, AGTRL-1, APLNR) (Homo sapiens, UniProt P35414).
T1 construct: host or cells: Chinese hamster ovary cells
T1 sequence (P35414 1-380): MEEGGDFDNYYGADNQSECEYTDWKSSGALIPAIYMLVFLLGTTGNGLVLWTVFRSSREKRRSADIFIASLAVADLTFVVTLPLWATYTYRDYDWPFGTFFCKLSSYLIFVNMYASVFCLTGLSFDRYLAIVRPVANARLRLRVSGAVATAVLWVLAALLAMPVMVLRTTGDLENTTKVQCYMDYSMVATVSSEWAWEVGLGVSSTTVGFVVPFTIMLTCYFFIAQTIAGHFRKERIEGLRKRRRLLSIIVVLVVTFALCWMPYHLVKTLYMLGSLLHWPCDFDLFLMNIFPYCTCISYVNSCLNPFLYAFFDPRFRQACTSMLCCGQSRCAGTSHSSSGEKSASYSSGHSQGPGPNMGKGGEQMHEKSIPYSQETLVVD
Nature of the experiment: APJ cAMP cell-based assay (forskolin-stimulated CHO cells, enzyme fragment complementation). The note with it: for Emax: CHO, 0.5 h, read-out: APJ cAMP % resp (efficacy). As for the experimental part:
The assays disclosed herein were performed using cell lines from DiscoveRx, Inc.
Biological activity was determined in a cell-based assay. This assay detects activation of the receptor by reporting on intracellular cyclic adenosine monophosphate (cAMP) level. Chinese hamster ovary cells engineered to express a stably integrated human apelin receptor (APJ, AGTRL-1, APLNR), were plated into the wells of a microtiter plate. Cells were stimulated with forskolin to increase intracellular cAMP. Immediately following, compounds were added at a range of final concentrations 0.0-100 μM, in DMSO (not to exceed a final DMSO concentration of >1% v/v), and allowed to incubate with the cells for 0.5 h. At the end of the incubation, cells were lysed to stop APJ signaling, and cAMP was quantified using a commercially available assay kit that applies enzyme fragment complementation technology and bioluminescence, in a competitive ELISA format.
Compound efficacy (% resp) is reported as a percentage of the maximal apelin-13 response at 1 nM (control).

[1] abbreviates: CHO cells expressing human APJ, forskolin-stimulated, 0.5 h incubation, 50% of control (apelin-13, 1 nM) response, read-out: APJ cAMP EC50.
Setting [2] is: percentage of the maximal apelin-13 response at 1 nM (control).

Like-named read-outs stand apart in the source and are kept apart here.

In the case of `COc1ccccc1-n1c(SCc2nc(=O)c3ccccc3[nH]2)nnc1-c1cccs1` [Example 52, 2-[4-(2-Methoxy-phenyl)-5-thiophen-2-yl-4H-[1,2,4]triazol-3-ylsulfanylmethyl]-1H-quinazolin-4-one], a half-maximal response (EC50) required 240 nM and the Emax was 113%.
Consider `COc1ccccc1-n1c(SCc2nc3cc(C)ccc3c(=O)[nH]2)nnc1-c1cccs1` [Example 53, 2-(((4-(2-methoxyphenyl)-5-(thiophen-2-yl)-4H-1,2,4-triazol-3-yl)thio)methyl)-7-methylquinazolin-4(3H)-one], for which the EC50 under setting [1] was found to be 1030 nM. The Emax under setting [2] was found to be 59%.
For `COc1ccccc1-n1c(SCc2nc(=O)c3cc(C#N)ccc3[nH]2)nnc1-c1cccs1` [Example 54, 2-[4-(2-Methoxy-phenyl)-5-thiophen-2-yl-4H-[1,2,4]triazol-3-ylsulfanylmethyl]-4-oxo-1,4-dihydro-quinazoline-6-carbonitrile] the same measures were 31.3 nM and 118%.
Taken in the same sequence, the figures for `COc1ccccc1-n1c(SCc2nc(=O)c3cc(F)ccc3[nH]2)nnc1-c1cccs1` [Example 55, 6-Fluoro-2-[4-(2-methoxy-phenyl)-5-thiophen-2-yl-4H-[1,2,4]triazol-3-ylsulfanylmethyl]-1H-quinazolin-4-one] were 9 nM and 109%.
For the compound `COc1ccccc1-n1c(SCc2nc(=O)c3c(F)cccc3[nH]2)nnc1-c1cccs1` [Example 56, 5-Fluoro-2-[4-(2-methoxy-phenyl)-5-thiophen-2-yl-4H-[1,2,4]triazol-3-ylsulfanylmethyl]-1H-quinazolin-4-one], the EC50 under setting [1] was determined as 8620 nM. Under setting [2], the Emax was 107%.
Regarding `COc1ccccc1-n1c(SCc2nc(=O)c3cccc(F)c3[nH]2)nnc1-c1cccs1` [Example 57, 8-Fluoro-2-[4-(2-methoxy-phenyl)-5-thiophen-2-yl-4H-[1,2,4]triazol-3-ylsulfanylmethyl]-1H-quinazolin-4-one], the Emax is 106%. The EC50 under setting [1] came out at 140 nM.
As to `COc1ccccc1-n1c(SCc2nc(=O)c3cccc(C)c3[nH]2)nnc1-c1cccs1` [Example 58, 2-[4-(2-Methoxy-phenyl)-5-thiophen-2-yl-4H-[1,2,4]triazol-3-ylsulfanylmethyl]-8-methyl-1H-quinazolin-4-one], under setting [1], the EC50 stood at 547 nM. Moreover, the Emax under setting [2] was 134%.
Taken in the same sequence, the figures for `COc1ccccc1-n1c(SCc2nc(=O)c3cc(C)ccc3[nH]2)nnc1-c1cccs1` [Example 59, 2-[4-(2-Methoxy-phenyl)-5-thiophen-2-yl-4H-[1,2,4]triazol-3-ylsulfanylmethyl]-6-methyl-1H-quinazolin-4-one] were 42 nM and 121%.
For `COc1ccccc1-n1c(SCc2nc(=O)c3ccc(C(F)(F)F)cc3[nH]2)nnc1-c1cccs1` [Example 60, 2-[4-(2-Methoxy-phenyl)-5-thiophen-2-yl-4H-[1,2,4]triazol-3-ylsulfanylmethyl]-7-trifluoromethyl-1H-quinazolin-4-one] the same measures were 569 nM and 160%.
Taken in the same sequence, the figures for `COc1ccccc1-n1c(SCc2nc(=O)c3cc(Br)ccc3[nH]2)nnc1-c1cccs1` [Example 61, 6-Bromo-2-[4-(2-methoxy-phenyl)-5-thiophen-2-yl-4H-[1,2,4]triazol-3-ylsulfanylmethyl]-1H-quinazolin-4-one] were 31.5 nM and 80%.
Turning to `COc1ccccc1-n1c(SCc2nc(=O)c3cc(Cl)ccc3[nH]2)nnc1-c1cccs1` [Example 62, 6-Chloro-2-[4-(2-methoxy-phenyl)-5-thiophen-2-yl-4H-[1,2,4]triazol-3-ylsulfanylmethyl]-1H-quinazolin-4-one], the EC50 under setting [1] came to 53.6 nM. For the same compound, under setting [2], the Emax was 116%.
Taken in the same sequence, the figures for `COc1ccccc1-n1c(SCc2nc(=O)c3ccc(F)cc3[nH]2)nnc1-c1cccs1` [Example 63, 7-Fluoro-2-[4-(2-methoxy-phenyl)-5-thiophen-2-yl-4H-[1,2,4]triazol-3-ylsulfanylmethyl]-1H-quinazolin-4-one] were 125 nM and 108%.
For `COc1ccccc1-n1c(SCc2nc(=O)c3cc(C(F)(F)F)ccc3[nH]2)nnc1-c1cccs1` [Example 64, 2-[4-(2-Methoxy-phenyl)-5-thiophen-2-yl-4H-[1,2,4]triazol-3-ylsulfanylmethyl]-6-trifluoromethyl-1H-quinazolin-4-one] the same measures were 365 nM and 92%.
For `COc1ccc2[nH]c(CSc3nnc(-c4cccs4)n3-c3ccccc3OC)nc(=O)c2c1` [Example 65, 6-Methoxy-2-[4-(2-methoxy-phenyl)-5-thiophen-2-yl-4H-[1,2,4]triazol-3-ylsulfanylmethyl]-1H-quinazolin-4-one] the same measures were 304 nM and 101%.
In the case of `COc1ccccc1-n1c(SCc2nc(=O)c3ccc(Cl)cc3[nH]2)nnc1-c1cccs1` [Example 66, 7-Chloro-2-[4-(2-methoxy-phenyl)-5-thiophen-2-yl-4H-[1,2,4]triazol-3-ylsulfanylmethyl]-1H-quinazolin-4-one], the EC50 under setting [1] stood at 482 nM. Besides, the Emax under setting [2] was 87%.
`COc1ccccc1-n1c(SCc2ccc3ccccc3n2)nnc1-c1cccs1` [Example 68, 2-[4-(2-Methoxy-phenyl)-5-thiophen-2-yl-4H-[1,2,4]triazol-3-ylsulfanylmethyl]-quinoline]: the EC50 under setting [1] was 211 nM. Besides, the Emax under setting [2] amounted to 79%.
For the compound `COc1ccccc1-n1c(SCc2nc(=O)c3cc(OC(F)(F)F)ccc3[nH]2)nnc1-c1cccs1` [Example 69, 2-[4-(2-Methoxy-phenyl)-5-thiophen-2-yl-4H-[1,2,4]triazol-3-ylsulfanylmethyl]-6-trifluoromethoxy-1H-quinazolin-4-one], the Emax stood at 59%. Also, the EC50 under setting [1] amounted to 1370 nM.
For the compound `COc1ccccc1-n1c(SCc2ccc(Cl)cc2)nnc1-c1cccs1` [Example 70, 3-(4-Chloro-benzylsulfanyl)-4-(2-methoxy-phenyl)-5-thiophen-2-yl-4H-[1,2,4]triazole], the EC50 under setting [1] is 2030 nM. The Emax under setting [2] was 134%.
For `COc1ccccc1-n1c(SCc2ccc(Cl)c(Cl)c2)nnc1-c1cccs1` [Example 71, 3-(3,4-Dichloro-benzylsulfanyl)-4-(2-methoxy-phenyl)-5-thiophen-2-yl-4H-[1,2,4]triazole] the same measures were 1220 nM and 99%.
For `COc1ccccc1-n1c(SCc2ccc([N+](=O)[O-])cc2)nnc1-c1cccs1` [Example 72, 4-(2-Methoxy-phenyl)-3-(4-nitro-benzylsulfanyl)-5-thiophen-2-yl-4H-[1,2,4]triazole] the same measures were 140 nM and 106%.
Taken in the same sequence, the figures for `COc1ccccc1-n1c(SCc2cccc(F)c2)nnc1-c1cccs1` [Example 73, 3-(3-Fluoro-benzylsulfanyl)-4-(2-methoxy-phenyl)-5-thiophen-2-yl-4H-[1,2,4]triazole] were 10200 nM and 166%.
Regarding `COc1ccccc1-n1c(SCc2ccccc2F)nnc1-c1cccs1` [Example 74, 3-(2-Fluoro-benzylsulfanyl)-4-(2-methoxy-phenyl)-5-thiophen-2-yl-4H-[1,2,4]triazole], the EC50 under setting [1] was 15000 nM. Further, the Emax under setting [2] was 80%.
Consider `COc1ccccc1-n1c(SCc2ccc(C)cc2)nnc1-c1cccs1` [Example 75, 4-(2-Methoxy-phenyl)-3-(4-methyl-benzylsulfanyl)-5-thiophen-2-yl-4H-[1,2,4]triazole], for which, under setting [1], the EC50 was found to be 2740 nM. For the same compound, the Emax under setting [2] was 70%.
Taken in the same sequence, the figures for `COc1ccccc1-n1c(SCc2cccc(C)c2)nnc1-c1cccs1` [Example 76, 4-(2-Methoxy-phenyl)-3-(3-methyl-benzylsulfanyl)-5-thiophen-2-yl-4H-[1,2,4]triazole] were 11300 nM and 159%.
Consider `COc1ccccc1-n1c(SCc2cc(F)cc(F)c2)nnc1-c1cccs1` [Example 77, 3-(3,5-Difluoro-benzylsulfanyl)-4-(2-methoxy-phenyl)-5-thiophen-2-yl-4H-[1,2,4]triazole], for which the EC50 under setting [1] was 8440 nM. Moreover, the Emax under setting [2] came to 111%.
Regarding `COc1ccccc1-n1c(SCc2ccncn2)nnc1-c1cccs1` [Example 78, 4-[4-(2-Methoxy-phenyl)-5-thiophen-2-yl-4H-[1,2,4]triazol-3-ylsulfanylmethyl]-pyrimidine], the concentration giving a half-maximal response (EC50) is greater than 10000 nM and the Emax worked out at 50%.
Take `COc1ccccc1-n1c(-c2cccs2)cnc1SCc1cc(=O)n2cc(C)ccc2n1` [Example 79, 2-[1-(2-Methoxy-phenyl)-5-thiophen-2-yl-1H-imidazol-2-ylsulfanylmethyl]-7-methyl-pyrido[1,2-a]pyrimidin-4-one]: the Emax is 54%. Moreover, under setting [1], the EC50 was found to be 1920 nM.

A word on the EC50: it is the concentration at which the effect is half-maximal.
